The supplement of paper PMC11061612

Experiments:
[1] = test system: ES8 (Ewing's Sarcoma); test: Bliss excess, mean over the matrix (fraction); higher = more synergy
In short: (§1)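 After 24 hours at 37°C and 5% CO2 in 1536-well plates, cells in DMEM/F12 or RPMI plus 10% FBS received two-drug dose matrices for 72 hours. Viability came from CellTiter-Glo 2.0 luminescence and was scaled as inhibition, anchored at 0 by vehicle wells and at 1 by blank wells. Combination Emax is taken as the second-highest inhibition in the matrix, and Bliss excess as the observed combination effect less EA + EB − EA·EB, with EA and EB the single-agent effects.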

[2] = test system: MKN28 (Gastric Carcinoma); test: as above
In short: as §1

[3] = test system: WM-115 (Melanoma); test: as above
In short: as §1

[4] = test system: DND-41 (T-Lymphoblastic Leukemia); test: as above
In short: as §1

[5] = test system: WIL2-NS (Non-Cancerous); test: as above
In short: as §1

[6] = test system: L-540 (Hodgkin's Lymphoma); test: as above
In short: as §1

[7] = test system: SW837 (Colorectal Carcinoma); test: as above
In short: as §1

[8] = test system: BFTC-905 (Bladder Carcinoma); test: as above
In short: as §1

[9] = test system: BL-41 (Burkitt's Lymphoma); test: as above
In short: as §1

[10] = test system: SR (Other Blood Carcinomas); test: as above
In short: as §1

[11] = test system: NCI-H1792 (Lung Adenocarcinoma); test: as above
In short: as §1

[12] = test system: ES1 (Ewing's Sarcoma); test: as above
In short: as §1

[13] = test system: NCI-H2818 (Mesothelioma); test: as above
In short: as §1

[14] = test system: CAMA-1 (Breast Carcinoma); test: as above
In short: as §1

[15] = test system: SW1417 (Colorectal Carcinoma); test: as above
In short: as §1

[16] = test system: GR-ST (B-Lymphoblastic Leukemia); test: as above
In short: as §1

[17] = test system: K-562 (Chronic Myelogenous Leukemia); test: as above
In short: as §1

[18] = test system: ES8 (Ewing's Sarcoma); test: combination Emax (second highest fraction inhibited in the dose matrix, 72 h); higher = more inhibition; extreme values may be limits of the assay
In short: as §1

[19] = test system: MKN28 (Gastric Carcinoma); test: as above
In short: as §1

[20] = test system: WM-115 (Melanoma); test: as above
In short: as §1

[21] = test system: DND-41 (T-Lymphoblastic Leukemia); test: as above
In short: as §1

[22] = test system: WIL2-NS (Non-Cancerous); test: as above
In short: as §1

[23] = test system: L-540 (Hodgkin's Lymphoma); test: as above
In short: as §1

[24] = test system: SW837 (Colorectal Carcinoma); test: as above
In short: as §1

[25] = test system: BFTC-905 (Bladder Carcinoma); test: as above
In short: as §1

[26] = test system: BL-41 (Burkitt's Lymphoma); test: as above
In short: as §1

[27] = test system: SR (Other Blood Carcinomas); test: as above
In short: as §1

[28] = test system: NCI-H1792 (Lung Adenocarcinoma); test: as above
In short: as §1

[29] = test system: ES1 (Ewing's Sarcoma); test: as above
In short: as §1

[30] = test system: NCI-H2818 (Mesothelioma); test: as above
In short: as §1

[31] = test system: CAMA-1 (Breast Carcinoma); test: as above
In short: as §1

[32] = test system: SW1417 (Colorectal Carcinoma); test: as above
In short: as §1

[33] = test system: GR-ST (B-Lymphoblastic Leukemia); test: as above
In short: as §1

[34] = test system: K-562 (Chronic Myelogenous Leukemia); test: as above
In short: as §1
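Throughout, for Bliss excess, mean over the matrix: after 72 h of two-drug dosing.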

Row | Structure (SMILES) | Bliss excess [1] | Bliss excess [2] | Bliss excess [3] | Bliss excess [4] | Bliss excess [5] | Bliss excess [6] | Bliss excess [7] | Bliss excess [8] | Bliss excess [9] | Bliss excess [10] | Bliss excess [11] | Bliss excess [12] | Bliss excess [13] | Bliss excess [14] | Bliss excess [15] | Bliss excess [16] | Bliss excess [17] | combination Emax [18] | combination Emax [19] | combination Emax [20] | combination Emax [21] | combination Emax [22] | combination Emax [23] | combination Emax [24] | combination Emax [25] | combination Emax [26] | combination Emax [27] | combination Emax [28] | combination Emax [29] | combination Emax [30] | combination Emax [31] | combination Emax [32] | combination Emax [33] | combination Emax [34]
1 | Cc1c2c(nn1C)CSCc1cc(n(C)n1)CSc1cc(c3ccccc3c1)OCCCc1c(C(=O)O)n(C)c3c-2c(Cl)ccc13 [AZD5991] + Nc1ccn([C@@H]2O[C@H](CO)[C@@H](O)C2(F)F)c(=O)n1 [Gemcitabine] (first compound max 1 µM, 7x7, partner max 0.3 µM) | -0.0121 | -0.0367 | -0.0572 | 0.021 | -0.0263 | 0.0162 | -0.0606 | -0.0194 | -0.0263 | 0.0073 | -0.0308 | 0.0102 | -0.0771 | 0.133 | 0.0394 | -0.0516 | 0.0045 | 1 | 0.161 | 0.431 | 0.848 | 0.942 | 1 | 0.273 | 0.909 | 1 | 0.991 | 0.774 | 1 | 0.358 | 0.942 | 0.332 | 0.791 | 0.222
2 | C[C@@H]1COCCN1c1cc(C2([S@](C)(=N)=O)CC2)nc(-c2ccnc3[nH]ccc23)n1 [AZD6738] + C1CC(C1)(C(=O)[O-])C(=O)[O-].N.N.[Pt+2] [Carboplatin] (first compound max 10 µM, 7x7, partner max 10 µM) | 0.0982 | -0.0242 | -0.0607 | -0.0146 | -0.0241 | -0.0267 | -0.0837 | 0.0337 | -0.0271 | -0.0383 | -0.0303 | -0.0078 | -0.0286 | -0.0454 | -0.0074 | -0.0241 | -0.031 | 0.925 | 0.327 | 0.425 | 0.919 | 0.922 | 0.894 | 0.402 | 0.723 | 0.974 | 0.879 | 0.733 | 0.917 | 0.378 | 0.381 | 0.375 | 0.747 | 0.847
3 | C[C@@H]1COCCN1c1cc(C2([S@](C)(=N)=O)CC2)nc(-c2ccnc3[nH]ccc23)n1 [AZD6738] + Nc1ccn([C@@H]2O[C@H](CO)[C@@H](O)C2(F)F)c(=O)n1 [Gemcitabine] (first compound max 10 µM, 7x7, partner max 0.3 µM) | 0.0265 | 0.0907 | 0.0268 | 0.0586 | 0.0093 | -0.0107 | 0.065 | 0.0387 | -0.0007 | 0.0532 | 0.0362 | 0.0203 | 0.0515 | 0.0878 | 0.0802 | 0.0085 | 0.0537 | 1 | 0.664 | 0.659 | 0.921 | 0.985 | 0.963 | 0.779 | 0.915 | 1 | 1 | 0.951 | 1 | 0.545 | 0.587 | 0.77 | 0.889 | 0.916
4 | Cc1cc2ncnn2cc1Nc1ncc2c(n1)n(C1CCOCC1)c(=O)n2C [AZD7648] + COc1cc([C@@H]2c3cc4c(cc3[C@@H](O[C@@H]3O[C@@H]5CO[C@@H](C)O[C@H]5[C@H](O)[C@H]3O)[C@H]3COC(=O)[C@H]23)OCO4)cc(OC)c1O [Etoposide] (first compound max 10 µM, 7x7, partner max 10 µM) | 0.165 | 0.0435 | 0.0071 | 0.115 | 0.0553 | 0.108 | 0.0591 | 0.152 | 0.0647 | 0.193 | 0.0565 | 0.109 | 0.0361 | -0.012 | 0.0288 | 0.0727 | 0.114 | 0.994 | 0.56 | 0.481 | 0.967 | 0.981 | 0.903 | 0.358 | 0.903 | 0.998 | 1 | 0.708 | 1 | 0.617 | 0.463 | 0.382 | 0.703 | 0.872
5 | C[C@@H](Nc1cc(F)cc(F)c1)c1cc(C(=O)N(C)C)cc2c(=O)cc(N3CCOCC3)oc12 [AZD8186] + C1CN(CCC1(C(=O)N[C@@H](CCO)C2=CC=C(C=C2)Cl)N)C3=NC=NC4=C3C=CN4 [AZD5363] (first compound max 10 µM, 7x7, partner max 10 µM) | 0.0216 | -0.0504 | -0.0842 | 0.0141 | 0.0339 | -0.024 | -0.0386 | -0.0098 | -0.0264 | -0.0412 | -0.0066 | 0.0388 | -0.017 | 0.0234 | -0.0038 | -0.03 | 0.0402 | 0.625 | 0.107 | 0.645 | 0.193 | 0.614 | 0.173 | 0.237 | 0.423 | 0.276 | 0.297 | 0.344 | 0.55 | 0.286 | 0.712 | 0.372 | 0.556 | 0.253
6 | C[C@@H](Nc1cc(F)cc(F)c1)c1cc(C(=O)N(C)C)cc2c(=O)cc(N3CCOCC3)oc12 [AZD8186] + CC(=O)c1c(C)c2cnc(Nc3ccc(N4CCNCC4)cn3)nc2n(C2CCCC2)c1=O [Palbociclib] (first compound max 10 µM, 7x7, partner max 10 µM) | 0.0321 | -0.0287 | 0.0109 | 0.0875 | -0.0251 | 0.0275 | -0.0454 | 0.0553 | -0.0114 | 0.0382 | 0.0608 | 0.074 | 0.044 | 0.0447 | 0.0187 | 0.0215 | 0.0479 | 0.676 | 0.227 | 0.58 | 0.504 | 0.771 | 0.267 | 0.213 | 0.55 | 0.245 | 0.839 | 0.577 | 0.722 | 0.389 | 0.738 | 0.395 | 0.725 | 0.196
7 | C[C@@H](Oc1cc(-c2cnn(C3CCNCC3)c2)cnc1N)c1c(Cl)ccc(F)c1Cl [Crizotinib] + CC1=C(C(=CC=C1)Cl)NC(=O)C2=CN=C(S2)NC3=CC(=NC(=N3)C)N4CCN(CC4)CCO [Dasatinib] (first compound max 10 µM, 7x7, partner max 2 µM) | 0.0154 | -0.0096 | -0.0409 | -0.0124 | 0.105 | -0.0447 | 0.0025 | 0.0479 | 0.0338 | -0.0251 | 0.0376 | -0.0149 | 0.0145 | -0.0273 | 0.0352 | 0.0129 | 0.0162 | 0.946 | 0.673 | 0.49 | 0.951 | 0.635 | 0.629 | 0.628 | 0.97 | 0.978 | 1 | 0.928 | 0.843 | 0.589 | 0.184 | 0.535 | 0.955 | 0.95
8 | C[C@@H](Oc1cc(-c2cnn(C3CCNCC3)c2)cnc1N)c1c(Cl)ccc(F)c1Cl [Crizotinib] + Cn1cnc2c(F)c(Nc3ccc(Br)cc3Cl)c(C(=O)NOCCO)cc21 [Selumetinib] (first compound max 10 µM, 7x7, partner max 10 µM) | -0.0482 | 0.016 | -0.0547 | 0.0194 | -0.026 | -0.0703 | -0.0422 | -0.0138 | -0.0265 | -0.0195 | -0.022 | -0.0239 | -0.0068 | -0.042 | 0.0093 | -0.0439 | 0.0366 | 0.921 | 0.516 | 0.476 | 0.971 | 0.485 | 0.553 | 0.562 | 0.912 | 1 | 1 | 0.917 | 0.843 | 0.329 | 0.156 | 0.608 | 0.972 | 0.947
